Results taken from ChEMBL document CHEMBL5528034, “Fragment-to-Lead Medicinal Chemistry Publications in 2022” (J Med Chem, 2024).

Experiments:
[1] = target: Transcriptional enhancer factor TEF-1 (Homo sapiens, UniProt P28347)
Description: Binding affinity to human recombinant N-terminal His-tagged TEAD1 (residues 209 to 424) expressed in Escherichia coli BL21 (DE3) assessed as dissociation constant

[2] = target: Replicase polyprotein 1ab (Severe acute respiratory syndrome coronavirus 2, UniProt P0DTD1)
Description: Binding affinity to SARS-CoV-2 Main protease assessed as dissociation constant by SPR analysis

Interleukin-1 beta = Interleukin-1 beta (Homo sapiens, UniProt P01584); experiment: Binding affinity to Interleukin-1beta (unknown origin) assessed as dissociation constant
Pantothenate synthetase = target: T1, Pantothenate synthetase (Mycobacterium tuberculosis, UniProt P9WIL5); experiment: Inhibition of Mycobacterium tuberculosis H37Ra pantothenate synthetase
T1 sequence (P9WIL5 whole entry): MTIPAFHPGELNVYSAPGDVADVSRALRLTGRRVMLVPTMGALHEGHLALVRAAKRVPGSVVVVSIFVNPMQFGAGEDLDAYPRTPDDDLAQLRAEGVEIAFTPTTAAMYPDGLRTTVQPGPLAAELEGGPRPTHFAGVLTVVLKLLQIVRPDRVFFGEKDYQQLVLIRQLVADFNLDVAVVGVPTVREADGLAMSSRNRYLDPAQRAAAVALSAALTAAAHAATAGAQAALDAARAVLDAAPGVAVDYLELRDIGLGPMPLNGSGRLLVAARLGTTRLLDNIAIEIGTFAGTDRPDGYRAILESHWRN

[3] = target: Transcriptional enhancer factor TEF-4 (Homo sapiens, UniProt Q15562)
Chain of Transcriptional enhancer factor TEF-4 (Q15562 whole entry): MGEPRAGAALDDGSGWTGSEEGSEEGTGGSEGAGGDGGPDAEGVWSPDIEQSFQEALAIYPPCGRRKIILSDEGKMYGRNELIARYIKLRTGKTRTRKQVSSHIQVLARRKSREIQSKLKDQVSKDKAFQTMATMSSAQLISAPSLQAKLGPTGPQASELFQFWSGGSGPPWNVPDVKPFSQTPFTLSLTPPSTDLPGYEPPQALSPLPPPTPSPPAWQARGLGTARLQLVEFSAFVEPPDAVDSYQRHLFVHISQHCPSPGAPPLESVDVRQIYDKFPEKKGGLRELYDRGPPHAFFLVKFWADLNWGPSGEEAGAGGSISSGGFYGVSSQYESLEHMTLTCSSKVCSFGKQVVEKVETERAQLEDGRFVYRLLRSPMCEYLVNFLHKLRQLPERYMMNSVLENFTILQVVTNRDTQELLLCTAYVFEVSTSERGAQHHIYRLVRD
Description: Binding affinity to human recombinant N-terminal His-tagged TEAD2 (residues 209 to 424) expressed in Escherichia coli BL21 (DE3) assessed as dissociation constant

Chain of Interleukin-1 beta (P01584 117-269 limits assumed): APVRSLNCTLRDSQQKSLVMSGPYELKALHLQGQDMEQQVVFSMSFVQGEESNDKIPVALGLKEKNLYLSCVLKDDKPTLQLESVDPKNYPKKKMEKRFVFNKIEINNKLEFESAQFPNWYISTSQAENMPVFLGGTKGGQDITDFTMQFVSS
Chain of Transcriptional enhancer factor TEF-1 (P28347 whole entry): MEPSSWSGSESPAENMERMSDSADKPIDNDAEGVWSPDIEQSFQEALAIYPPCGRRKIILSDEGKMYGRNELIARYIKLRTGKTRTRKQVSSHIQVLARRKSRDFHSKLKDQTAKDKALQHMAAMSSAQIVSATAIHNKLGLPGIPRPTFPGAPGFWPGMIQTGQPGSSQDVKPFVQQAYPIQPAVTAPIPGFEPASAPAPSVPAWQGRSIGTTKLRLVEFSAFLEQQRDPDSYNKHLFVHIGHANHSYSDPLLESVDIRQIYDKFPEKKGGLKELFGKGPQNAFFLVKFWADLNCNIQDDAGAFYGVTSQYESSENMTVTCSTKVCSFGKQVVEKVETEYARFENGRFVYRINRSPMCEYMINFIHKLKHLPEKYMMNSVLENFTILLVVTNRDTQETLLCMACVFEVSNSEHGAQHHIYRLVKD

Compound C=C(F)C(=O)N1C[C@@H](n2cc(-c3cccnc3)nn2)[C@H](OCc2ccc(C(F)(F)F)cc2)C1 has a Kd [1] of 170 nM.
With O=C1N[C@@H](Cc2ccccc2)C(=O)N1c1cncc(F)c1 the Kd [2] was 23000 nM.
O=C(O)c1cc(NCc2ccccc2OCCOCCOCCOc2ccccc2CNc2cc(C(=O)O)cc(-c3ccnc4ccccc34)c2)cc(-c2ccnc3ccccc23)c1 showed a Kd (Interleukin-1 beta) of 40 nM.
In the case of N#Cc1c(N)ncnc1-c1cnn(Cc2ccc(F)c(F)c2)c1, the IC50 (Pantothenate synthetase) is reported as 150 nM.
In the case of N#Cc1cncnc1N, the IC50 (Pantothenate synthetase) is reported as 340 nM.
For O=C(O)c1ccccc1Nc1cccc(C(F)(F)F)c1 [FLUFENAMIC ACID], the Kd [3] was 73000 nM.
